pIC50: −log10 of the molar value.
Key:
[1] = target: JAK2 (recombinant purified GST-tagged catalytic domain) (Homo sapiens (Human), UniProt O60674); assay: Jak Biochemical HTRF Assay (JAK2); details: [ATP] 8.5 μM
[2] = target: JAK1 (recombinant purified GST-tagged catalytic domain) (Homo sapiens (Human), UniProt P23458); assay: Jak Biochemical HTRF Assay (JAK1); details: [ATP] 31.8 μM
In short: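 Phosphorylation of a common biotinylated peptide by each catalytic domain is measured by HTRF. The ATP-started reaction runs 120 min at room temperature before EDTA quench and detection.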

JAK2 (recombinant purified GST-tagged catalytic domain), sequence (O60674 849-1124): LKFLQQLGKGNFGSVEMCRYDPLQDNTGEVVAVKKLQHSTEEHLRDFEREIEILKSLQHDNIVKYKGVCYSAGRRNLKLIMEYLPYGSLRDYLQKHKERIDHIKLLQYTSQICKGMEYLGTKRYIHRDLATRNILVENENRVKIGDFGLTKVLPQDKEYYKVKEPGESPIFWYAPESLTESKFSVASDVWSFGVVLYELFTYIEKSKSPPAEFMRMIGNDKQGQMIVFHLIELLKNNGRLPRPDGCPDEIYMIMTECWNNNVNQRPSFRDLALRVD
JAK1 (recombinant purified GST-tagged catalytic domain), sequence (P23458 875-1153): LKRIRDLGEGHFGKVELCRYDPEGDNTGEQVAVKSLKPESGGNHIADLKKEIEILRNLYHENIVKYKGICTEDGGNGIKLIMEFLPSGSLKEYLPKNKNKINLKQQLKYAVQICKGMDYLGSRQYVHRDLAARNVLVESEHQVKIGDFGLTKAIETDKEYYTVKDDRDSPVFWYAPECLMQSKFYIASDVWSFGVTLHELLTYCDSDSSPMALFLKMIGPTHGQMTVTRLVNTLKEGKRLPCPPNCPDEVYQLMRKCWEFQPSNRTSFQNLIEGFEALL

| Structure (SMILES) | pIC50 [1] | pIC50 [2] |
| --- | --- | --- |
| Cc1cc(C)cc(Nc2nn(C3(CC#N)CCN(C(=O)OC(C)(C)C)CC3)c3cc[nH]c(=O)c23)c1 [Example 5-61, tert-butyl 4-(cyanomethyl)-4-(3-(3,5-dimethylphenylamino)-4-oxo-4,5-dihydropyrazolo[4,3-c]pyridin-1-yl)piperidine-1-carboxylate] | 7.90 | 9.19 |
| CC(C)(C)OC(=O)N1CC[C@@](CC#N)(n2nc(Nc3ccc(S(C)(=O)=O)cc3)c3c(=O)[nH]ccc32)[C@H](F)C1 (single isomer, unassigned) [Example 5-15, tert-butyl (3R,4S or 3S,4R)-4-(cyanomethyl)-3-fluoro-4-(3-{[4-(methylsulfonyl)phenyl]amino}-4-oxo-4,5-dihydro-1H-pyrazolo[4,3-c]pyridin-1-yl)piperidine-1-carboxylate] | 8.46 | 9.57 |
| CC(O)(c1ccc(Nc2nn([C@]3(CC#N)CCCOC3)c3cc[nH]c(=O)c23)cc1)C(F)(F)F (single isomer, unassigned) [Example 5-111, {(3S)-3-[4-oxo-3-({4-[(1R or 1S)-2,2,2-trifluoro-1-hydroxy-1-methylethyl]phenyl}amino)-4,5-dihydro-1H-pyrazolo[4,3-c]pyridin-1-yl]tetrahydro-2H-pyran-3-yl}acetonitrile] | 9.46 | 10.05 |
| CN(C(C)(C)C)S(=O)(=O)c1ccc(Nc2nn([C@]3(CC#N)CC[C@@H](C(=O)OC(C)(C)C)OC3)c3cc[nH]c(=O)c23)cc1 [Example 5-90, (2S,5S)-tert-butyl 5-(3-((4-(N-(tert-butyl)-N-methylsulfamoyl)phenyl)amino)-4-oxo-4,5-dihydro-1H-pyrazolo[4,3-c]pyridin-1-yl)-5-(cyanomethyl)tetrahydro-2H-pyran-2-carboxylate] | 9.39 | 9.48 |
| CN(C)S(=O)(=O)c1ccc(Nc2nn(C3(CC#N)CCN(C(=O)C(C)(C)C)CC3)c3cc[nH]c(=O)c23)cc1 [Example 9-5, 4-({1-[4-(cyanomethyl)-1-(2,2-dimethylpropanoyl)piperidin-4-yl]-4-oxo-4,5-dihydro-1H-pyrazolo[4,3-c]pyridin-3-yl}amino)-N,N-dimethylbenzenesulfonamide] | 8.52 | 9.26 |
| N#CCC1(n2nc(Nc3ccc4c(c3)CN(CC(F)(F)F)C4=O)c3c(=O)[nH]ccc32)CCCC1 [Example 5-138, 2-(1-(4-oxo-3-((1-oxo-2-(2,2,2-trifluoroethyl)isoindolin-5-yl)amino)-4,5-dihydro-1H-pyrazolo[4,3-c]pyridin-1-yl)cyclopentyl)acetonitrile] | 8.82 | 9.51 |
| CN(C)C(c1ccc(Nc2nn([C@]3(CC#N)CC[C@@H](C(=O)OC(C)(C)C)OC3)c3cc[nH]c(=O)c23)cc1)C(F)(F)F (single isomer, unassigned) [Example 5-214, (2S,5S)-tert-butyl 5-(cyanomethyl)-5-(3-((4-((R or S)-1-(dimethylamino)-2,2,2-trifluoroethyl)phenyl)amino)-4-oxo-4,5-dihydro-1H-pyrazolo[4,3-c]pyridin-1-yl)tetrahydro-2H-pyran-2-carboxylate] | 9.49 | 9.70 |
| CNC(=O)c1ccc(Nc2nn(C3(CC#N)CCCC3)c3cc[nH]c(=O)c23)cc1 [Example 5-128, 4-((1-(1-(cyanomethyl)cyclopentyl)-4-oxo-4,5-dihydro-1H-pyrazolo[4,3-c]pyridin-3-yl)amino)-N-methylbenzamide.] | 8.65 | 9.66 |
| N#CCC1(n2nc(Nc3ccc(F)cc3)c3c(=O)[nH]ccc32)CCNCC1 [Example 6, (4-{3-[(4-fluorophenyl)amino]-4-oxo-4,5-dihydro-1H-pyrazolo[4,3-c]pyridin-1-yl}piperidin-4-yl)acetonitrile] | < 5.83 | 6.38 |
| N#CC[C@]1(n2nc(Nc3ccc(Cl)cc3)c3c(=O)[nH]ccc32)CC[C@H](N2CC(F)C2)CC1 [Example 18-6, Trans 2-(1-(3-((4-chlorophenyl)amino)-4-oxo-4,5-dihydro-1H-pyrazolo[4,3-c]pyridin-1-yl)-4-(3-fluoroazetidin-1-yl)cyclohexyl)acetonitrile] | 8.76 | 10.05 |
| CC(C)(C)OC(=O)N1CC(CC#N)(n2nc(Nc3ccc(F)cc3)c3c(=O)[nH]ccc32)C1 [Example 4-3, tert-butyl 3-(cyanomethyl)-3-(3-((4-fluorophenyl)amino)-4-oxo-4,5-dihydro-1H-pyrazolo[4,3-c]pyridin-1-yl)azetidine-1-carboxylate] | 7.44 | 8.58 |
| CN(C)S(=O)(=O)c1ccc(Nc2nn(C3(CC#N)CCN(C(=O)O[C@@H]4CCOC4)CC3)c3cc[nH]c(=O)c23)cc1 [Example 11-6, (R)-tetrahydrofuran-3-yl 4-(cyanomethyl)-4-(3-((4-(N,N-dimethylsulfamoyl)phenyl)amino)-4-oxo-4,5-dihydro-1H-pyrazolo[4,3-c]pyridin-1-yl)piperidine-1-carboxylate] | 9.33 | 9.92 |

The next compounds have a higher pIC50 [1] than those just listed; values first:

| pIC50 [1] | pIC50 [2] | Structure (SMILES) |
| --- | --- | --- |
| 9.55 | 9.66 | CN(C)S(=O)(=O)c1ccc(Nc2nn(C3(CC#N)CCN(C(=O)OC(C)(C)C)CC3)c3cc[nH]c(=O)c23)cc1 [Example 5-1, tert-butyl 4-(cyanomethyl)-4-(3-((4-(N,N-dimethylsulfamoyl)phenyl)amino)-4-oxo-4,5-dihydro-1H-pyrazolo[4,3-c]pyridin-1-yl)piperidine-1-carboxylate] |
| 9.59 | 9.66 | Cc1cc(Nc2nn([C@]3(CC#N)CC[C@@H](C(=O)OC(C)(C)C)OC3)c3cc[nH]c(=O)c23)ccc1C(=O)N1CC(C)OC(C)C1 (single isomer, unassigned) [Example 20-13, (2S,5S)-tert-butyl 5-(cyanomethyl)-5-(3-((4-((2S,6S or 2R,6R)-2,6-dimethylmorpholine-4-carbonyl)-3-methylphenyl)amino)-4-oxo-4,5-dihydro-1H-pyrazolo[4,3-c]pyridin-1-yl)tetrahydro-2H-pyran-2-carboxylate] |
| 9.68 | 10.00 | COC(=O)N1CCC(CC#N)(n2nc(Nc3ccc4c(c3)CCC4(O)C(F)(F)F)c3c(=O)[nH]ccc32)CC1 (single isomer, unassigned) [Example 5-144, (R or S)-methyl 4-(cyanomethyl)-4-(3-((1-hydroxy-1-(trifluoro-methyl)-2,3-dihydro-1H-inden-5-yl)amino)-4-oxo-4,5-dihydro-1H-pyrazolo[4,3-c]pyridin-1-yl)piperidine-1-carboxylate] |
| 9.55 | 9.82 | CC(C)S(=O)(=O)c1ccc(Nc2nn([C@]3(CC#N)CC[C@@H](C(=O)OC(C)(C)C)OC3)c3cc[nH]c(=O)c23)cc1 [Example 5-237, (2S,5S)-tert-butyl 5-(cyanomethyl)-5-(3-((4-(isopropylsulfonyl)phenyl)amino)-4-oxo-4,5-dihydro-1H-pyrazolo[4,3-c]pyridin-1-yl)tetrahydro-2H-pyran-2-carboxylate] |
| 9.59 | 9.85 | CC(C)(C)OC(=O)[C@@H]1CC[C@@](CC#N)(n2nc(Nc3ccc4c(c3)CN(C(C)(C)C)C4=O)c3c(=O)[nH]ccc32)CO1 [Example 5-100, (2S,5S)-tert-butyl 5-(3-((2-(tert-butyl)-1-oxoisoindolin-5-yl)amino)-4-oxo-4,5-dihydro-1H-pyrazolo[4,3-c]pyridin-1-yl)-5-(cyanomethyl)tetrahydro-2H-pyran-2-carboxylate] |
